According to ChEMBL document CHEMBL5291721, “A preclinical secondary pharmacology resource illuminates target-adverse drug reaction associations of marketed drugs” (Nat Commun, 2023):

How the values were obtained:
[1] = biological target: Beta-2 adrenergic receptor (Homo sapiens, UniProt P07550); format: functional, cell-based
Adenosine receptor A1 = biological target: T1, Adenosine receptor A1 (Homo sapiens, UniProt P30542)
T1 sequence (P30542 whole entry): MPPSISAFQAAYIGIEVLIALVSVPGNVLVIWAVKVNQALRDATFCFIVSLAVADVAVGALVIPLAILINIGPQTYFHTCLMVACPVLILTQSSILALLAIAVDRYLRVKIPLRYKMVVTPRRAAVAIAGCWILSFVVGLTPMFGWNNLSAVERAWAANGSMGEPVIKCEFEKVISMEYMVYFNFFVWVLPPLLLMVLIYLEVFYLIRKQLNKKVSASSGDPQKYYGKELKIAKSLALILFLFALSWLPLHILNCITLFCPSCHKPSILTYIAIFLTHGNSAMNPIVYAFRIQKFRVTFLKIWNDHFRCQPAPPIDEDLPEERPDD

[2] = biological target: Neuronal acetylcholine receptor subunit alpha-4 (Homo sapiens, UniProt P43681)
[3] = biological target: T2, Alpha-1A adrenergic receptor (Homo sapiens, UniProt P35348); format: functional, cell-based
T2 sequence (P35348 whole entry): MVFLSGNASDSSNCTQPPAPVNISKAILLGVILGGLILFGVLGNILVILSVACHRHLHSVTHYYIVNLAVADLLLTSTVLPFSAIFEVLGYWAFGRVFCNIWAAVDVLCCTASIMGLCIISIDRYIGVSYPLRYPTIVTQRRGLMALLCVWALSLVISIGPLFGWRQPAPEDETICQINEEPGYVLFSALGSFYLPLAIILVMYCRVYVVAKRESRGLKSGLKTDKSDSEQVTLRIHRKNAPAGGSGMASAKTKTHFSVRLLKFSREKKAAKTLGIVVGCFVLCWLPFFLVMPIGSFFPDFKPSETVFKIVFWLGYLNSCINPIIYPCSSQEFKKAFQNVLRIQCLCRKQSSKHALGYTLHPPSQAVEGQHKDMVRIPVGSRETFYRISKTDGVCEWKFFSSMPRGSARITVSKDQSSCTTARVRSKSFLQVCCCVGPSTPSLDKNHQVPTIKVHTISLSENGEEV

[4] = biological target: T3, 5-hydroxytryptamine receptor 2C (Homo sapiens, UniProt P28335)
T3 sequence (P28335 whole entry): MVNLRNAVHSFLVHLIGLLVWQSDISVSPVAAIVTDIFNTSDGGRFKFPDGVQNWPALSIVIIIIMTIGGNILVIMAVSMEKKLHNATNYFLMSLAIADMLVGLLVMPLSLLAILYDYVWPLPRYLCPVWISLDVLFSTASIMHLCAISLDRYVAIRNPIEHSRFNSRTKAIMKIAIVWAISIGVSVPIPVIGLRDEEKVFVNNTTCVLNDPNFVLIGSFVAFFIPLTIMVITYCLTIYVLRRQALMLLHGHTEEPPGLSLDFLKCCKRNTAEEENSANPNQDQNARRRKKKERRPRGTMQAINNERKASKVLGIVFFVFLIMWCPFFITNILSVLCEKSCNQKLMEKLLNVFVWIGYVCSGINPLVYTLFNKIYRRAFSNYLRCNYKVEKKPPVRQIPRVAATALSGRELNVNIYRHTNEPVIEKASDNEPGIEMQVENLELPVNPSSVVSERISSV

[5] = biological target: T4, Alpha-2B adrenergic receptor (Homo sapiens, UniProt P18089)
T4 sequence (P18089 whole entry): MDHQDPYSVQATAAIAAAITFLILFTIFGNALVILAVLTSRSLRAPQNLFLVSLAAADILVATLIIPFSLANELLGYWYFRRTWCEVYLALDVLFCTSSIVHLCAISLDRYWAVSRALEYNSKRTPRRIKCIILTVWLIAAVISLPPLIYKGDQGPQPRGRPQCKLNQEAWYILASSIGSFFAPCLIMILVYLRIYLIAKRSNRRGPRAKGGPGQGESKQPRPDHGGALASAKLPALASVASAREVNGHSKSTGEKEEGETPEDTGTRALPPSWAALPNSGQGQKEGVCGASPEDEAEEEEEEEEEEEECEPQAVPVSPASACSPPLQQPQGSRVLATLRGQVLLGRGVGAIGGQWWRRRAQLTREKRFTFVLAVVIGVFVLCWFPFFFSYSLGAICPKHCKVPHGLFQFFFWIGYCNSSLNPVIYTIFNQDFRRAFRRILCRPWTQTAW

[6] = biological target: T2, Alpha-1A adrenergic receptor; format: functional, cell-based; remark: listed apart in the source
[7] = biological target: Voltage-dependent L-type calcium channel subunit alpha-1C (Rattus norvegicus, UniProt P22002); format: functional
Motilin receptor = Motilin receptor (Homo sapiens, UniProt O43193)
D(1A) dopamine receptor = D(1A) dopamine receptor (Homo sapiens, UniProt P21728); format: functional, cell-based
Vasopressin V2 receptor = Vasopressin V2 receptor (Homo sapiens, UniProt P30518)
[8] = biological target: Gamma-aminobutyric acid receptor subunit alpha-1 (Rattus norvegicus, UniProt P62813); format: functional
[9] = biological target: T5, Muscarinic acetylcholine receptor M1 (Homo sapiens, UniProt P11229); format: functional
T5 sequence (P11229 whole entry): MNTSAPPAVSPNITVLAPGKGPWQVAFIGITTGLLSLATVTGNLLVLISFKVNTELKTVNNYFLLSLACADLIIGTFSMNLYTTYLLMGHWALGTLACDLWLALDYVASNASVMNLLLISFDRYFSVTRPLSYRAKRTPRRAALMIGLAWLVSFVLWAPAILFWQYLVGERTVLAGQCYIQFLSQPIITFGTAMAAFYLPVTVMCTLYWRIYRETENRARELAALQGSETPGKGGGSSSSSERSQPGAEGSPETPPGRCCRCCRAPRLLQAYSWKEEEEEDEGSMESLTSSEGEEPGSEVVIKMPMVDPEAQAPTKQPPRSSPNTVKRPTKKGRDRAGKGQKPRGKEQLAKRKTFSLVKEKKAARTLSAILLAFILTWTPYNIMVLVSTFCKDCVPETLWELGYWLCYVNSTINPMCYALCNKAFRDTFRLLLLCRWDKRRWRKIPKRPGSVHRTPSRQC
Note: assay procedure not described here.

Sequence of Gamma-aminobutyric acid receptor subunit alpha-1 (P62813 whole entry): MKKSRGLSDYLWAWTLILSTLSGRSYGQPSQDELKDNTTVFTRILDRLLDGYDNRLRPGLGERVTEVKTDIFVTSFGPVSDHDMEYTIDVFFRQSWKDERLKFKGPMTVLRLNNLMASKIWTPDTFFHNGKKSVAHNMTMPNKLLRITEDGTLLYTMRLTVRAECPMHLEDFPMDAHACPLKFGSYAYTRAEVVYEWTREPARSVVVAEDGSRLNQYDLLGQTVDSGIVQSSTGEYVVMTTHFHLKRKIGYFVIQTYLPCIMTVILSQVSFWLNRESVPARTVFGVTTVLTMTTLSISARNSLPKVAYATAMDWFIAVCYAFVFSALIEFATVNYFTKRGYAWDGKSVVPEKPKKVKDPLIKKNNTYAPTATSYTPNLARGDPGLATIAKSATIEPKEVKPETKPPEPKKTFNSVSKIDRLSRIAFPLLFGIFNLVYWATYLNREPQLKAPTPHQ
Sequence of Motilin receptor (O43193 whole entry): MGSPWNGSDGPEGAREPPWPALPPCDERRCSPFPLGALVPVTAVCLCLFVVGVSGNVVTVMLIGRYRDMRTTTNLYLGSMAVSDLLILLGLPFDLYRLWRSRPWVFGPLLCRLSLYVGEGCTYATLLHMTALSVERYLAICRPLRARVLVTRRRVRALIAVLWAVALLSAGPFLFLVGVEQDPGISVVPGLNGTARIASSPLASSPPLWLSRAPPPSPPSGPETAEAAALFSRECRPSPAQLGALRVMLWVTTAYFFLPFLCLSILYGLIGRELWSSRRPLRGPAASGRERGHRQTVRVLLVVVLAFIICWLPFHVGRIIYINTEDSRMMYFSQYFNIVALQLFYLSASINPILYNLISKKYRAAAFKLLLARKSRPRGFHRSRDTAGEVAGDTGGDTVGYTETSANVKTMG
Sequence of D(1A) dopamine receptor (P21728 whole entry): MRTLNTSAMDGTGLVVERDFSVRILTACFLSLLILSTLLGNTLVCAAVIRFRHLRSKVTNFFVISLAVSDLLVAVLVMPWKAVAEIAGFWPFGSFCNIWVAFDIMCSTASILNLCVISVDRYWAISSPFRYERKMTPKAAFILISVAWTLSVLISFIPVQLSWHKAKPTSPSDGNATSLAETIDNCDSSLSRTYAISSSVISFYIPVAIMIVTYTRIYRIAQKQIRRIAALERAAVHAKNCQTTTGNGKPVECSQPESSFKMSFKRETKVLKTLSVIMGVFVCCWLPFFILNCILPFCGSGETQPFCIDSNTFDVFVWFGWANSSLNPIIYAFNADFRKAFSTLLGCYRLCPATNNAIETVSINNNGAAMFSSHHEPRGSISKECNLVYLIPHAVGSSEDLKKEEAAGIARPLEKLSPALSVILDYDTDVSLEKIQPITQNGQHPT
Sequence of Neuronal acetylcholine receptor subunit alpha-4 (P43681 whole entry): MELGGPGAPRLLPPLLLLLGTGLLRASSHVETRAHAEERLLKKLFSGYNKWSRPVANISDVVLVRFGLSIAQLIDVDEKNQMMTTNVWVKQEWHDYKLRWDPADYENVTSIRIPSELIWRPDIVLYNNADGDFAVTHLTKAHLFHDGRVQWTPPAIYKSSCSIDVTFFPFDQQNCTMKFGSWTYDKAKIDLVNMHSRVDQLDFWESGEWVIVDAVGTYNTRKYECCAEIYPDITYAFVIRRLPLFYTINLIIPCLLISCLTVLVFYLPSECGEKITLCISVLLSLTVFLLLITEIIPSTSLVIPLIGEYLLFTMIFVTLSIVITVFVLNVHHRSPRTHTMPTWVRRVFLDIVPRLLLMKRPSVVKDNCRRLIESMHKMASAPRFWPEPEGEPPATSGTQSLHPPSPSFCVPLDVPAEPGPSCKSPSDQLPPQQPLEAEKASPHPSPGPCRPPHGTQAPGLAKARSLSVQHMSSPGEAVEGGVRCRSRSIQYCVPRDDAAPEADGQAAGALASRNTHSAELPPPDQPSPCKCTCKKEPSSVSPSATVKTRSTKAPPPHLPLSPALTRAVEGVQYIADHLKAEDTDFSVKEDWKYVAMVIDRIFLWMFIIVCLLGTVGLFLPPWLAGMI
Sequence of Voltage-dependent L-type calcium channel subunit alpha-1C (P22002 whole entry): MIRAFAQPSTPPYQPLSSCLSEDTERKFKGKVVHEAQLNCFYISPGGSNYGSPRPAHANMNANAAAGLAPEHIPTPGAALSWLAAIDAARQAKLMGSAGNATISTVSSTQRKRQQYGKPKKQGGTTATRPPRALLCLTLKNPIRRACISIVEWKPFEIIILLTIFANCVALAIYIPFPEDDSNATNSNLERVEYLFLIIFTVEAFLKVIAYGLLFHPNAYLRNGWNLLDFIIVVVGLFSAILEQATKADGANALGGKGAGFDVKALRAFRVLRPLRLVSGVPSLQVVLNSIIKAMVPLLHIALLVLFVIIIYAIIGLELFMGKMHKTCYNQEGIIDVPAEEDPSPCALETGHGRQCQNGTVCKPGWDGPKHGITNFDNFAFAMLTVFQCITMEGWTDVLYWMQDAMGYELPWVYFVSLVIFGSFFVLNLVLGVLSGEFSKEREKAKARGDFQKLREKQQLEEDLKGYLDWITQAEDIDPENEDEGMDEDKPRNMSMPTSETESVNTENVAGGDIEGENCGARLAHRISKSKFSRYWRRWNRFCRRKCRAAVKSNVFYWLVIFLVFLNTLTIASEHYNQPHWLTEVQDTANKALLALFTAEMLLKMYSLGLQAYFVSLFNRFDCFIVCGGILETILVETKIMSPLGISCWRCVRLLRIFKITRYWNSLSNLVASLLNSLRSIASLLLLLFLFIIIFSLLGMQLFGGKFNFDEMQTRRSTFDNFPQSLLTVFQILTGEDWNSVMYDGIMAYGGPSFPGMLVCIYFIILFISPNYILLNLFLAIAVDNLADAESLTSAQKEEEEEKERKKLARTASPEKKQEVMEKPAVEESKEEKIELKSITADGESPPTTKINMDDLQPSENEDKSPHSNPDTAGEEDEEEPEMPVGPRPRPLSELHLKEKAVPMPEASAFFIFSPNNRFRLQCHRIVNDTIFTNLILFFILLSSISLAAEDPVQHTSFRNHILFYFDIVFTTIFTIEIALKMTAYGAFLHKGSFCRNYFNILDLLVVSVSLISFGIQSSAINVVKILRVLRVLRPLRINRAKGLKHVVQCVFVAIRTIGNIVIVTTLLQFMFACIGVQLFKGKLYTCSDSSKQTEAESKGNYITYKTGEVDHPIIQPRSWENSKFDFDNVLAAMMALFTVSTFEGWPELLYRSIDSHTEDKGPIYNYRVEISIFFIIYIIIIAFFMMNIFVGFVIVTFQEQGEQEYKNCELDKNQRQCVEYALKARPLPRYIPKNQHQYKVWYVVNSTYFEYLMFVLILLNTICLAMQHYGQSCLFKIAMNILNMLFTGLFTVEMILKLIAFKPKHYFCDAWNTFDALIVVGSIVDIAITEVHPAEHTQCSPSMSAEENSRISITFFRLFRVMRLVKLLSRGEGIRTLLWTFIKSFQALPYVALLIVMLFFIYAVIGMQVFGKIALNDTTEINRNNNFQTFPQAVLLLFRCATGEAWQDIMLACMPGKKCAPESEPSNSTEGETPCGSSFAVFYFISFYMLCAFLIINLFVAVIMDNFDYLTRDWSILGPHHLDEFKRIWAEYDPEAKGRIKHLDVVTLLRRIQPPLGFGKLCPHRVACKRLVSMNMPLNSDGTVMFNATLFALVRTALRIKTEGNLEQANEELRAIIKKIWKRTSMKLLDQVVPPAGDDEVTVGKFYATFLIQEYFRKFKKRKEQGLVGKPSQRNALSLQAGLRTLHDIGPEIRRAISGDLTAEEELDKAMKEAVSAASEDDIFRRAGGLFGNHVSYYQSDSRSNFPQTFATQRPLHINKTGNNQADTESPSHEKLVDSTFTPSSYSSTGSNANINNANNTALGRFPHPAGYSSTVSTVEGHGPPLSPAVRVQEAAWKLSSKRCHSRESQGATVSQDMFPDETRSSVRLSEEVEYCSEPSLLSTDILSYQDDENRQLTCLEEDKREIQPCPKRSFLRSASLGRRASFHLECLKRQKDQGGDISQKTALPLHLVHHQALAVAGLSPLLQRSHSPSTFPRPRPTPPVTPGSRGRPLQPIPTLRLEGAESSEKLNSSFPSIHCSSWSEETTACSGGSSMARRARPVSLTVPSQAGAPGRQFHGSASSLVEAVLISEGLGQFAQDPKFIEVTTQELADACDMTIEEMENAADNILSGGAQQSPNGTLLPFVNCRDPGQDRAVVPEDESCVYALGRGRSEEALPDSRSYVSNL
Sequence of Beta-2 adrenergic receptor (P07550 whole entry): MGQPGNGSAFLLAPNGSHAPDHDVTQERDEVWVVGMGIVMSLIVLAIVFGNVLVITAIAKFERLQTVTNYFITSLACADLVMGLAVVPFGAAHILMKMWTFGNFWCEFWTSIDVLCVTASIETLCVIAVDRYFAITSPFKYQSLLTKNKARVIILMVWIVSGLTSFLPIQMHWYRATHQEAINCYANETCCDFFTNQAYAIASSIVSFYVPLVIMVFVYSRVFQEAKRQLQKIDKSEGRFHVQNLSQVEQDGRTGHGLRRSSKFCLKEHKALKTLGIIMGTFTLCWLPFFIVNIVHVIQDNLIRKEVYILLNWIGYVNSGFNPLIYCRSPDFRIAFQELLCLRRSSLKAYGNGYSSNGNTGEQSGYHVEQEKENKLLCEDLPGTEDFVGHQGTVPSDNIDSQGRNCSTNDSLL
Sequence of Vasopressin V2 receptor (P30518 whole entry): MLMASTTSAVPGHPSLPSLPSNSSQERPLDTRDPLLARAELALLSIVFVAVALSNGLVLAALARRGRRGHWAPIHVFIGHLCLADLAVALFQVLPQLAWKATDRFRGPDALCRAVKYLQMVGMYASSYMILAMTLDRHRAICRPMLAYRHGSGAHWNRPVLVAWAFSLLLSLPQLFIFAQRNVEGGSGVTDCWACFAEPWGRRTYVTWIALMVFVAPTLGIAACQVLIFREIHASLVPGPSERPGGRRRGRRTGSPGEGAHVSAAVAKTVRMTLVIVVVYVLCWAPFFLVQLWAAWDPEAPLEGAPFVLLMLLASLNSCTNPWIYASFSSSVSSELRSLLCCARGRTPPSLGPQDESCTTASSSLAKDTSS

Compound | AC50 [1] | AC50 (Adenosine receptor A1) | AC50 [2] | AC50 [3] | AC50 [4] | AC50 [5] | AC50 [6] | AC50 [7] | AC50 (Motilin receptor) | AC50 (D(1A) dopamine receptor) | AC50 (Vasopressin V2 receptor) | AC50 [8] | AC50 [9]
CN(C)CC/C=C1\c2ccccc2CSc2ccccc21 [DOTHIEPIN] | > 30 µM | > 30 µM | > 30 µM | > 30 µM | 1.6 µM | 1.3 µM | 0.87 µM | 24 µM | > 30 µM | > 30 µM | > 30 µM | > 30 µM | –
CN1CCN(C2=Nc3ccccc3Sc3ccc(Cl)cc32)CC1 [CLOTHIAPINE] | > 30 µM | – | – | > 30 µM | 0.8 µM | 1.3 µM | 1.2 µM | – | – | > 30 µM | – | > 30 µM | 1.2 µM
COc1cc2nc(N3CCN(C(=O)c4ccco4)CC3)nc(N)c2cc1OC [PRAZOSIN] | – | > 30 µM | > 10 µM | – | > 30 µM | – | – | > 10 µM | > 10 µM | > 10 µM | > 30 µM | > 10 µM | –
C=CCN1C[C@H](C(=O)N(CCCN(C)C)C(=O)NCC)C[C@@H]2c3cccc4[nH]cc(c34)C[C@H]21 [CABERGOLINE] | > 30 µM | > 10 µM | > 10 µM | 0.599 µM | > 30 µM | – | – | > 10 µM | > 10 µM | 0.0367 µM | > 10 µM | > 10 µM | > 10 µM
CCCC1O[C@@H]2C[C@H]3[C@@H]4CCC5=CC(=O)C=C[C@]5(C)[C@H]4[C@@H](O)C[C@]3(C)[C@]2(C(=O)CO)O1 (stereo partly drawn) [BUDESONIDE] | – | > 10 µM | > 10 µM | – | > 30 µM | – | – | > 10 µM | > 10 µM | > 10 µM | > 10 µM | > 10 µM | –
O=[N+]([O-])O[C@@H]1CO[C@H]2[C@@H]1OC[C@@H]2O [ISOSORBIDE MONONITRATE] | – | > 30 µM | – | – | > 30 µM | > 10 µM | – | > 10 µM | > 10 µM | > 10 µM | > 30 µM | > 10 µM | > 10 µM
COc1ccccc1N1CCN(CC(O)COc2cccc3ccccc23)CC1 (stereo not drawn) [NAFTOPIDIL] | > 30 µM | – | > 10 µM | > 30 µM | > 30 µM | 0.3 µM | 0.46 µM | 6.3 µM | – | > 30 µM | – | > 30 µM | > 30 µM
COC1=C(OC)C(=O)C(C/C=C(\C)CC/C=C(\C)CC/C=C(\C)CC/C=C(\C)CC/C=C(\C)CC/C=C(\C)CC/C=C(\C)CC/C=C(\C)CC/C=C(\C)CCC=C(C)C)=C(C)C1=O [UBIDECARENONE] | > 30 µM | – | – | > 30 µM | > 30 µM | > 30 µM | > 30 µM | – | – | > 30 µM | – | > 30 µM | > 30 µM
Cc1cc(C)c(NC(=O)CN(CC(=O)O)CC(=O)O)c(C)c1Br [MEBROFENIN] | > 30 µM | – | – | > 30 µM | > 30 µM | > 30 µM | > 30 µM | – | – | > 30 µM | – | > 30 µM | > 30 µM
CC[C@H]1CN2CCc3cc(OC)c(OC)cc3[C@@H]2C[C@@H]1C[C@H]1NCCc2cc(OC)c(OC)cc21 [EMETINE] | > 30 µM | > 30 µM | > 30 µM | > 30 µM | > 30 µM | – | > 30 µM | – | > 30 µM | > 30 µM | > 30 µM | > 30 µM | –
CCC(CC)(CC(=O)Nc1cccc(/C=C/c2nc(C3CCC3)cs2)c1)C(=O)O | – | > 30 µM | > 30 µM | – | – | – | – | – | > 30 µM | – | > 30 µM | – | –
Cc1oc(=O)oc1CN1CCN(c2cc3c(cc2F)c(=O)c(C(=O)O)c2n3C(C)S2)CC1 (stereo not drawn) [PRULIFLOXACIN] | > 30 µM | – | – | > 30 µM | > 30 µM | > 30 µM | > 30 µM | – | – | > 30 µM | – | > 30 µM | > 30 µM
CCCCCNC(=N)N/N=C/c1c[nH]c2ccc(OC)cc12 [TEGASEROD] | – | > 30 µM | > 30 µM | > 30 µM | 0.543 µM | 3.37 µM | 2.1 µM | > 30 µM | 16.3 µM | 0.34 µM | 20.3 µM | 13 µM | > 30 µM
C[N+]1(CCCCC[N+]2(C)CCCC2)CCCC1 [PENTOLINIUM] | – | – | > 30 µM | – | – | – | – | – | – | – | – | – | –
CC[C@@H](C(N)=O)N1CCCC1=O | > 30 µM | > 30 µM | > 30 µM | > 30 µM | > 30 µM | > 30 µM | > 30 µM | – | > 30 µM | > 30 µM | > 30 µM | > 30 µM | > 30 µM
O=[N+]([O-])c1cn2c(n1)OC[C@@H](OCc1ccc(OC(F)(F)F)cc1)C2 [PRETOMANID] | – | > 30 µM | – | – | > 10 µM | > 10 µM | – | > 10 µM | > 10 µM | – | > 30 µM | > 10 µM | > 10 µM
CCOc1ccc(Cc2cc([C@@H]3O[C@H](CO)[C@@H](O)[C@H](O)[C@H]3O)ccc2Cl)cc1 [DAPAGLIFLOZIN] | – | > 30 µM | > 10 µM | – | > 30 µM | > 10 µM | – | > 10 µM | > 10 µM | – | > 30 µM | > 10 µM | > 10 µM
CC(=O)c1ccc2c(c1)N(CCCN(C)C)c1ccccc1S2 [ACEPROMAZINE] | – | – | – | – | – | – | – | – | – | > 30 µM | – | – | –
CN(C)CCc1c[nH]c2ccc(C[C@H]3COC(=O)N3)cc12 [ZOLMITRIPTAN] | > 30 µM | > 30 µM | > 30 µM | 14 µM | > 30 µM | > 30 µM | – | – | > 30 µM | > 30 µM | > 30 µM | > 30 µM | > 30 µM
